How the values were obtained:
[1] = system: ICR mice, cutaneous barrier function disrupted by acetone/diethylether and water; assay: Scratching action of mice with disrupted cutaneous barrier function, subcutaneous administration (Example 1); type: in vivo, mouse; settings: subcutaneous 10 mg/kg at barrier-disrupted site, 15 min before recording; scratching counted for 2 hours; mean ± standard error, 8 mice
Procedure: A number of scratching action of 8 mice per 2 hours is shown by the average percentage±standard error based on the average of the control group (100%). “S” represents the control group which received saline, “L” represents L-NAME administrated group and “D” represents D-NAME administrated group.
The evaluation of the therapeutic effects of the pharmaceutical composition of the present invention may be conducted by using the small test animals produced by the method developed by the inventors, such as mice of which the cutaneous barrier function have been disrupted. Such animals may be produced according to the following procedure: An noninflammation dermal lesion caused by the disruption of cutaneous barrier function may be induced by degreasing the small test animals by applying an organic solvent to the glabrous skin of the animals and then treating with water. […] For example, the hydration of the stratum corneum can be determined by a technique of conductimetry, determination of electrostatic capacity or FT-IR method. Transepidermal water loss can be non-invasively determined with an electric measuring instrument or the like so as not to influence the scratching action. […]

[2] = system: NC mouse; settings: administration of NOS inhibitor; cited from earlier work

SMILES | number of the scratching action relative to saline control group (100%) [1] [%] | effect on scratching action [2]
COC(=O)[C@H](N)CCCN=C(N)N[N+](=O)[O-] [D-NAME, Nw-nitro-D-arginine methyl ester] | 90.9±15.2 | 
COC(=O)[C@@H](N)CCCNC(=N)N[N+](=O)[O-] [L-NAME, Nw-nitro-L-arginine methyl ester] | 27.9±6.4 | scratching action can be suppressed
